Data as given in publication PMC4830886, “Extended evaluation on the ES-D3 cell differentiation assay combined with the BeWo transport model, to predict relative developmental toxicity of triazole compounds” (Archives of Toxicology, 2015).

What was measured:
[1] = WST-1 cytotoxicity assay with ES-D3 cells; format: cell-based; conditions: mouse, ES-D3 embryonic stem cells, WST-1, 5-day exposure, read-out: decline in cell viability
Protocol: The murine ES-D3 cell line was purchased from ATCC (Wesel, Germany). The cells were maintained in polystyrene cell culture flasks (Corning, The Netherlands) in Dulbecco’s modified Eagle’s medium (DMEM, Invitrogen, Breda, The Netherlands), supplemented with 20 % heat-inactivated fetal calf serum (Lonza, BioWhittaker, Verviers, Belgium), 50 U/ml penicillin with 50 μg/ml streptomycin (Invitrogen), 2 mM L-glutamine (Invitrogen), 0.1 mM β-mercaptoethanol (Sigma-Aldrich) and 1 % (v/v) nonessential amino acids (Invitrogen), at 37 °C and 5 % CO2 in a humidified atmosphere. Cells were kept undifferentiated with 1000 U/ml murine leukemia inhibiting factor (LIF) (Sigma-Aldrich) and subcultured every 2–3 days using nonenzymatic cell dissociation solution (Sigma-Aldrich) to detach the cells.
To determine cytotoxicity of the compounds, a WST-1 assay was performed. This assay measures the influence of test compounds on the formation of the water-soluble formazan reaction product from WST-1 by mitochondrial succinate-tetrazolium reductase enzymes. The cytotoxicity of a test compound inversely correlates with the absorbance of the produced formazan quantified spectrophotometrically as described previously (Reitsma et al. [2013]). ES-D3 cells were exposed to test compounds for the duration of 1 or 5 days as described before (Li et al. [2015]). Briefly, cells were seeded in 96-well plates (Greiner bio-one) at concentrations of 20 × 10^4 cells/ml (1-day exposure) or 1 × 10^4 cells/ml (5-day exposure) in 100 μl culture medium in the absence of LIF and incubated for 1 day to allow cell adherence. Then, the cells were exposed to the test compounds at concentrations up to 60 μM (final solvent concentration 0.2 % DMSO) and subsequently cultured for 1 or 5 days at 37 °C and 5 % CO2 in a humidified atmosphere. Solvent DMSO (0.2 %) was used as a negative control and 1 % Triton X-100 served as a positive control in all cytotoxicity assays. After incubation of 1 or 5 days, 20 μl WST-1 reagent (Roche, Woerden, The Netherlands) was added to each well and the plates were incubated for another 3 h. Then, absorbance was measured at 450 nm using a SpectraMax M2 (Molecular Devices, Sunnyvale, USA). Three wells were used per treatment in each independent experiment. Three independent experiments were done for each compound. The cell viability was expressed as % of the solvent control, with the solvent control set at 100 % viability. Reproducible results were obtained from the treatments of negative and positive controls in all of the cytotoxicity assays.

[2] = in vitro BeWo transport model (placental transfer); conditions: human
Protocol: (§1) To study placental transfer of test compounds, BeWo transport experiments were performed as described previously (Li et al. [2013]). Briefly, BeWo b30 cells (passages 27–45) were cultured in DMEM (Zwijndrecht, The Netherlands), supplemented with 10 % (v/v) heat-inactivated FCS (HyClone-Perbio, Etten-Leur, The Netherlands), 10,000 U/ml penicillin, 10 mg/ml streptomycin and 2 mM L-glutamine. The cells were seeded at a density of 1 × 10^5 cells/cm^2 on transwell® polycarbonate membranes (12 mm diameter, 0.4 μm pore size) (VWR International BV, Amsterdam, The Netherlands) coated with human placental collagen. The medium (0.5-ml apical compartment, 1.5-ml basolateral compartment) was replaced daily. At day 6 postseeding, the BeWo b30 cell layers were used for transport experiments. The barrier-forming capacity of the BeWo cell layers was evaluated by measuring the transepithelial electrical resistance (TEER) of the cell monolayer using a Millicell ERS-2 Volt-Ohm Meter (Millipore, USA) at day 6 postseeding as described previously (Li et al. [2013]). Only the cell layers showing TEER values between 80 and 100 Ω cm^2 were used for transport experiments.
(§2) Transport experiments were initiated by adding 0.5 ml of transport buffer Hank’s balanced salt solution (HBSS, Invitrogen, Breda, The Netherlands) containing the test compound, being 0594, 0595, 0596, 0599, 0600 and 0618, dissolved in DMSO (final solvent concentration 0.5 % DMSO), at concentration of 50 μM, to the apical compartment and 1.5 ml transport buffer to the basolateral compartment. Subsequently, the plate was incubated in a humidified atmosphere with 5 % CO2 at 37 °C. After 15, 30, 60 and 90 min, a sample of 0.2 ml was taken from the basolateral compartment and replaced by an equal volume of transport buffer. At the end of each experiment, a 0.2-ml sample was also taken from the apical compartment. Subsequently, the filters with the BeWo b30 cell layers were washed three times with PBS, cut out of the insert, dissolved in 0.25 ml 65 % (v/v) methanol and sonificated for 15 min in a Bandelin Sonorex RK100 (Berlin, Germany) in order to determine the amount of compound accumulated in the cells. After each experiment, mass balance calculations were performed. In each transport study, amoxicillin and antipyrine were included as control and reference compounds. Amoxicillin transport was included to assess for monolayer integrity since it is a compound known to be transported only to a limited extent across the placenta, whereas antipyrine was included as a control for optimal transport and a reference compound to enable calculation of relative transport rates (Li et al. [2013]). The transport of the six test compounds, as well as the reference compounds amoxicillin and antipyrine, through the permeable membrane of the transwell filter in the absence of BeWo cells was determined as well. […] For each test compound, three independent experiments were performed, with three technical replicates per experiment.
(§3) Samples were analyzed using high-performance liquid chromatography (HPLC) to quantify the amount of test compound in order to determine the transport rate and to perform mass balance calculations. The HPLC system used consisted of a Waters (Milford, MA) 600 controller and a 600 pump, equipped with a photodiode array detector set to record absorption of wavelengths between 200 and 400 nm. A Waters 717 plus autosampler was used for sample injection. The temperature of the autosampler was kept at 7 °C.
(§4) For analysis of all compounds, 50 μl sample was injected to a C18 5 μm reverse-phase column (150 mm × 4.6 mm I.D.) with a guard column (7.5 mm × 4.6 mm I.D.) (Alltech, Bergen op Zoom, The Netherlands). The mobile phase used for analysis of all the test compounds consisted of (A) 0.1 % trifluoroacetic acid in nanopure water and (B) HPLC-grade acetonitrile. Elution was at a flow rate of 0.8 ml/min, starting at 22 % B with a linear increase to 100 % B in 8 min.

BeWo b30 cell layers = assay: in vitro BeWo transport model (placental transfer); conditions: BeWo cells, 50 μM (25 nmol) apical, at 90 min
Protocol: as §1, §2, §3, §4

SMILES	cytotoxicity at 5 days, 60 µM [1] [%]	Papp at 30 min, 50 μM [2] [×10⁻⁶ cm/s]	Intracellular accumulation (% of added amount) (BeWo b30 cell layers)
OC(c1cccnc1)c1c(-c2ccc(F)cc2F)noc1-c1ccc(Cl)cc1F (stereo not drawn) [compound 0594, [5-(4-Chloro-2-fluoro-phenyl)-3-(2,4-difluoro-phenyl)-isoxazol-4-yl]-pyridin-3-yl-methanol]	30	11.5 ± 2.6	24 % of added amount
CC(c1nc(-c2ccc(C#N)cc2)cs1)C(O)(Cn1cncn1)c1ccc(F)cc1 (stereo not drawn) [compound 0596, 4-{2-[2-(4-Fluoro-phenyl)-2-hydroxy-1-methyl-3-[1,2,4]triazol-1-yl-propyl]-thiazol-4-yl}-benzonitrile]	70	24.4 ± 2.7	12 % of added amount
CC1CC(C)OC(Cn2cncn2)(c2ccc(Oc3ccc(Cl)cc3)cc2Cl)O1 (stereo not drawn) [compound 0600, 1-[[2-[2-Chloro-4-(4-chlorophenoxy)phenyl]-4,6-dimethyl-1,3-dioxan-2-yl]methyl]-1,2,4-triazole]	20	7.9 ± 1	66 % of added amount
OC(c1cccnc1)c1c(-c2ccc(F)cc2F)csc1-c1ccc(F)cc1F (stereo not drawn) [compound 0595, [2,4-Bis-(2,4-difluoro-phenyl)-thiophen-3-yl]-pyridin-3-yl-methanol]	20	3 ± 0.4	79 % of added amount
CC(c1nc(-c2ccc(C#N)cc2)cs1)C(O)(Cn1ccnc1)c1ccc(F)cc1 (stereo not drawn) [compound 0599, 4-[2-[2-(4-Fluorophenyl)-2-hydroxy-3-imidazol-1-yl-1-methyl-propyl]thiazol-4-yl]benzonitrile]	80	18.4 ± 1.1	22 % of added amount
